Experimental data taken from the NIST ThermoML archive (doi:10.1016/j.jct.2007.11.002).

Test: xn = mol fraction of the nth substance listed
Details: 101 kPa, Liquid; for viscosity: Capillary tube (Ostwald / Ubbelohde) method

CN1CCOCC1 [N-methylmorpholine] + C1CCCCC1
Details	mass density, 298.15 K [kg/m3]	mass density, 303.15 K [kg/m3]	mass density, 313.15 K [kg/m3]	mass density, 323.15 K [kg/m3]	viscosity, 298.15 K [mPa·s]	viscosity, 303.15 K [mPa·s]	viscosity, 313.15 K [mPa·s]	viscosity, 323.15 K [mPa·s]
x2 = 0.0453	907.59	902.83	893.49	874.42	0.868	0.854	0.824	0.802
x2 = 0.1276	895.48	890.66	882.09	863.12	0.85	0.838	0.803	0.778
x2 = 0.1689	889.43	884.59	876.36	857.48	0.84	0.828	0.792	0.764
x2 = 0.2217	881.74	876.96	869.02	850.4	0.83	0.814	0.779	0.75
x2 = 0.2763	873.94	869.13	861.42	843.13	0.824	0.804	0.765	0.732
x2 = 0.3217	867.42	862.66	855.1	837.1	0.821	0.797	0.755	0.718
x2 = 0.3873	857.99	853.23	845.94	828.33	0.819	0.791	0.742	0.701
x2 = 0.4326	851.46	846.82	839.61	822.36	0.819	0.786	0.736	0.691
x2 = 0.4833	844.29	839.67	832.51	815.69	0.821	0.784	0.729	0.681
x2 = 0.5218	838.78	834.2	827.11	810.59	0.824	0.784	0.726	0.673
x2 = 0.5844	829.95	825.42	818.32	802.4	–	0.785	0.721	0.665
x2 = 0.5943	–	–	–	–	0.829	–	–	–
x2 = 0.6328	823.16	818.66	811.52	796.08	–	0.786	0.719	0.659
x2 = 0.6341	–	–	–	–	0.835	–	–	–
x2 = 0.6877	–	–	–	–	0.842	–	–	–
x2 = 0.6911	815.03	810.51	803.31	788.47	–	0.789	0.717	0.653
x2 = 0.7129	–	–	–	–	0.847	–	–	–
x2 = 0.7428	807.87	803.38	796.01	781.8	–	0.79	0.714	0.646
x2 = 0.7648	–	–	–	–	0.855	–	–	–
x2 = 0.7895	–	–	–	–	0.861	–	–	–
x2 = 0.7944	800.77	796.31	788.72	775.2	–	0.794	0.71	0.638
x2 = 0.8392	794.64	790.27	782.38	769.54	–	0.797	0.708	0.631
x2 = 0.8444	–	–	–	–	0.868	–	–	–
x2 = 0.8643	791.35	786.94	778.83	766.42	–	0.797	0.706	0.626
x2 = 0.8873	–	–	–	–	0.875	–	–	–
x2 = 0.9033	786.15	781.75	773.3	761.57	–	0.801	0.704	0.619
x2 = 0.9348	–	–	–	–	0.889	–	–	–
x2 = 0.9532	779.63	775.19	766.22	755.42	–	0.805	0.7	0.611
x2 = 0.9741	–	–	–	–	0.898	–	–	–
x2 = 0.9823	775.75	771.51	762.08	751.98	–	0.805	0.698	0.607
